Here are results for one compound from US11612601B1, “Targeting epidermal growth factor to treat vascular calcification” (THE FLORIDA INTERNATIONAL UNIVERSITY BOARD OF TRUSTEES, priority 2022, dated 2023).

The subject of assay [1] is Primary human coronary artery vascular smooth muscle cells. Briefly: VSMC osteogenic marker gene expression (qRT-PCR). It is filed as cell-based. The note with it: OS + 2.5 μM vs OS, 14 days. The procedure: Primary human coronary artery vascular smooth muscle cells, (VSMCs, ATCC, PCS-100-021) were cultured using vascular smooth muscle cell media and growth kit (ATCC, PCS-100-042). VSMCs (passage 4-6) were harvested using 0.05% trypsin-EDTA solution (Caisson Labs, TRL04) and seeded with a density of 26,320 cells.cm^-2 and incubated for 72 hours at 37° C., 5% CO2 with controlled humidity prior to treatment. […] OS media were supplemented with 10 mM β-glycerophosphate (Sigma, 13408-09-8), 0.1 mM L-ascorbic acid (Sigma, 113170-55-1), and 10 nM dexamethasone (Sigma, 50-02-2). To assess the role of EGFR inhibition, tyrphostin AG1478 (Millipore Sigma, T4182) was dissolved in vehicle (DMSO:Methanol, 1:1) and added to OS media to a final concentration of 2.5 μM. An equal volume of vehicle was added to the control and OS groups. […] On days 6, 13, 20, and 27 the media were replaced by an extracellular-vesicle-free (EV-free) media (ultracentrifuged for 15 hours at 100,000×g at 4° C. to remove background EVs common in the serum). After 24 hours, conditioned media were collected on days 7, 14, 21, and 28. […] To perform the quantitative real time polymerase chain reaction (qRT-PCR), Power SYBR Green RNA-to-CT 1-Step Kit (Applied Biosystems, 4391178) was used. […] The relative gene expression levels were calculated using comparative CT method, considering control groups as the reference. […]
(Quantitative PCR measures a nucleic acid by following its amplification.)

The next assay concerns Osteoblasts (hFOB 1.19). The assay can be described thus: Osteoblast osteogenic gene expression, intracellular TNAP activity and CAV1. The assay is classed as cell-based, human. The following applies: 7 days. As for the experimental part: Osteoblasts (from human fetus, hFOB 1.19, ATCC, CRL-11372) were cultured and grown in DMEM containing 10% v/v bovine calf serum and 1% v/v penicillin-streptomycin. Osteoblasts (passage 4-6) were harvested using 0.25% trypsin-EDTA solution (Caisson Labs, TRL01), seeded with a density of 5,200 cell.cm^−2, and incubated for 24 hours at 37° C. and 5% CO2 with controlled humidity. The cells were treated in three groups of control, OS, and OS supplemented with tyrphostin AG1478 (2.5 μM) for 21 days and media changed every three days. […] Similar to the VSMC experiments, EV-free media were added to the cultures on days 6, 13, and 20, and collected 24 hours later on days 7, 14, and 21. Collected media were centrifuged at 1,000×g for 5 min to remove cell debris. EVs were isolated using the ultracentrifugation at 100,000×g for 1 hour.
Following 7 or 14 days of treatment with control, OS, and OS plus EGFR inhibitor media, VSMCs and osteoblasts were lysed in 1 mL TRIzol solution (Invitrogen, 15596018). Total RNA was isolated according to the manufacturer's protocol. To perform the quantitative real time polymerase chain reaction (qRT-PCR), Power SYBR Green RNA-to-CT 1-Step Kit (Applied Biosystems, 4391178) was used. 50 ng isolated template RNA were added to each reaction for qRT-PCR. The results were normalized relative to Glyceraldehyde 3-phosphate dehydrogenase (GAPDH) expression level as the housekeeping control. The relative gene expression levels were calculated using comparative CT method, considering control groups as the reference.
The following human primer sequences were purchased from Integrated DNA Technologies (IDT); GAPDH Forward: […] (SEQ ID NO: 1) and Reverse: […] (SEQ ID NO: 2); RUNX2 Forward: […] (SEQ ID NO: 3) and Reverse: […] (SEQ ID NO: 4); ALPL Forward: […] (SEQ ID NO: 5) and Reverse: […] (SEQ ID NO: 6); Osteocalcin Forward: TCACACTCCTCGCCCTATT (SEQ ID NO: 7) and Reverse: […] (SEQ ID NO: 8).
To assess the activity of intracellular tissue non-specific alkaline phosphatase (TNAP), a colorimetric assay kit (BioVision, K412) was used. VSMCs (n=3) after 14 days and osteoblasts (n=3) after 7 days, were lysed in 120 μL assay buffer. 80 μL of each sample were mixed with 50 μL of 5 mM pNPP solution and incubated for 60 min at 25° C. The colorimetric change resulting from the reaction was detected using a plate reader to measure absorbance at 405 nm. The results were normalized to the total protein for associated samples measured by a BCA protein assay (BioVision, K813).
VSMCs, osteoblasts, isolated EVs (either from cells or mouse aortas), and matrix vesicles (from osteoblasts) were lysed in RIPA lysis and extraction buffer supplemented with protease inhibitor. After adding Laemmli SDS-sample buffer (1:4 v/v, Boston BioProducts, BP-110R) to each lysate, the samples were denatured at 100° C. for 10 min, loaded into 7.5-12% 1-mm SDS-PAGE gel (15 to 20 μg protein per lane), and run at 170 V. The proteins were then transferred to Trans-Blot turbo nitrocellulose membranes (BIO-RAD, 1704158) at 25 V for 7 min.
To quantify the total protein, the membranes were stained using 2% w/v Ponceau stain (Alfa Aesar, AAJ6074409) for 20 min, followed by one wash with 5% acetic acid and milliQ water for 5 min. After imaging, the intensity of each lane was measured in ImageJ for total protein normalization. Membranes were blocked with 5% w/v bovine serum albumin (HyClone, SH30574.01) in TBS-Tween (1×) for 1 hour. […]

`COc1cc2ncnc(Nc3cccc(Cl)c3)c2cc1OC` [AG1478, tyrphostin AG1478]: the “Gene expression of osteogenic marker ALPL in VSMCs” value in assay [1] (p=0.1) is listed as “no significant differences”. The “Gene expression of osteogenic marker RUNX2 in VSMCs” value in assay [1] (p=0.42) is reported as “no significant differences”. Besides, in the assay on Osteoblasts (hFOB 1.19) (OS + 2.5 μM vs OS, p=0.9), the “Gene expression of ALPL in osteoblasts” value is listed as “no significant differences” and the “Gene expression of Osteocalcin (BGLAP) in osteoblasts” value is listed as “no significant differences”. Also, in the assay on Osteoblasts (hFOB 1.19) (OS + 2.5 μM), the “Gene expression of RUNX2 in osteoblasts” value was “downregulation” and the “intracellular TNAP activity in osteoblasts” value was “significantly increased”. In the assay on Osteoblasts (hFOB 1.19) (OS + 2.5 μM, compared to control group, p=0.01), the “intracellular CAV1 protein in osteoblasts” value is reported as “significantly increased”.
